Where a chain is given by its changes, count along the chain named. In names and notes the source's numbering stands.
Experiments:
C. thiooxydans homolog [1] = system: T1, C. thiooxydans homolog; test: HPLC hydrolysis assay, initial velocities, substrate inhibition model fit; format: biochemical, Comamonas thiooxydans; conditions: substrate inhibition constant
T1 construct: gene MHETase homolog; Gly179 at the position of MHETase Ser131
Description: HPLC hydrolysis assay, initial velocities, substrate inhibition model fit on C. thiooxydans homolog | MHETase and both homologs also display this behavior

C. thiooxydans homolog [2] = system: T2, C. thiooxydans homolog; conditions: substrate inhibition model
T2 construct: gene MHETase homolog

MHETase [3] = molecular target: T3, MHETase (Pseudideonella sakaiensis, UniProt A0A0K8P8E7); test: HPLC hydrolysis assay, initial velocities, substrate inhibition model fit; format: biochemical; design: gene ISF6_0224; pET21b(+)-based expression in E. coli, purified; residue borders and tags only in SI; catalytic triad Ser225, Asp492, His528; conditions: substrate inhibition constant
T3 sequence (A0A0K8P8E7 18-603 limits assumed): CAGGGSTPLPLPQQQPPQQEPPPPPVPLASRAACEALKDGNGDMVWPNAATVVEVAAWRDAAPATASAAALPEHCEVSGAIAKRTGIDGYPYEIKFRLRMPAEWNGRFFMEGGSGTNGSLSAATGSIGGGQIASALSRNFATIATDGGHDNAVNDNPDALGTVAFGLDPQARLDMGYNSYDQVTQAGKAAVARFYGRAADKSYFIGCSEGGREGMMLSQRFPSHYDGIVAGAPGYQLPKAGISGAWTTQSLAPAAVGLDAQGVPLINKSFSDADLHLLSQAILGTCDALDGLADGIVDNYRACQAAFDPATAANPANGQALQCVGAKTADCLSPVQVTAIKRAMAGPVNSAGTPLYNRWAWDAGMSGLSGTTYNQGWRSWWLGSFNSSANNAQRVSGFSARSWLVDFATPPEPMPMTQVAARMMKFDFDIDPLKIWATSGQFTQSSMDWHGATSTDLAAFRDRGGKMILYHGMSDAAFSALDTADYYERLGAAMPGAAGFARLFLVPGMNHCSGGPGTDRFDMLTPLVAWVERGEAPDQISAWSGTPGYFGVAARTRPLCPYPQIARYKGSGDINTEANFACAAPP
Description: HPLC hydrolysis assay, initial velocities, substrate inhibition model fit on MHETase | MHETase is also the most susceptible to substrate inhibition with a Kk value of […]

MHETase [4] = molecular target: T3, MHETase; test: X-ray crystallography, […] Å; format: binding; design: gene ISF6_0224; pET21b(+)-based expression in E. coli, purified; residue borders and tags only in SI; catalytic triad Ser225, Asp492, His528; conditions: active site; fully occupied in 6QZ3, partially occupied in 6QZ1
[5] = substrate: O=C(O)c1ccc(C(=O)OCCO)cc1; test: HPLC hydrolysis assay, initial velocities, simple Michaelis-Menten fit; format: biochemical, Pseudideonella sakaiensis; conditions: simple Michaelis-Menten model
Description: HPLC hydrolysis assay, initial velocities, simple Michaelis-Menten fit on MHETase | The S131G mutant has a Km value approximately eightfold higher than that of wild-type MHETase

O=C(O)c1ccc(C(=O)OCCO)cc1 [MHET]
Kk (C. thiooxydans homolog [1]): 78.80 ± 3.04 µM | Km (C. thiooxydans homolog [2]): 175 ± 4.75 µM | Kk (MHETase [3]): 307.30 ± 20.65 µM

O=C(O)c1ccccc1 [benzoate]
X-ray crystallography, 1.6 Å (MHETase [4]): one structure with a fully occupied benzoic acid ligand (6QZ3)

B1: MHETase (Pseudideonella sakaiensis; S131G) (protein)
chain: T3 sequence (A0A0K8P8E7 18-603 limits assumed) with S114G
notes: pET21b(+)-based expression in E. coli, purified; residue borders and tags only in SI; catalytic triad Ser225, Asp492, His528
Km [5]: 184.10 ± 3.50 µM
